Results: patent US20240189289A1, “INHIBITORS OF EPHB3 SIGNALING” (The Brigham and Women`s Hospital, Inc., priority 2021, published 2024)

Legend:
[1] = Preliminary in vivo pharmacokinetic evaluation, IP, plasma and brain concentrations; parameters: species or system Sprague-Dawley rats
[2] = system: neonatal murine astrocytes; experiment: Neonatal murine astrocytes activated with TNFα and IL-1β: qPCR and ELISA; type: cell-based, mouse
Experimental: Mouse primary astrocyte cultures. […] The cell suspension was then cultured at 37° C. in humidified 5% CO2 on poly-L-Lysine (#P4707, Sigma-Aldrich) pre-coated cell culture flasks. Medium was replaced every 3-5 days. The cells reached confluence after 7-10 days. Microglia were separated by shaking the glia culture at 225 rpm at 37° C. for at least 3 h and washing extensively with 1×PBS. Astrocytes were detached by mild trypsinization with Trypsin-EDTA (0.05%) at 37° C. and plated. […] Both cell types were then cultured separately for downstream procedures. […] Finally, microglia and astrocytes of each condition where magnetically separated as before and lysed for downstream gene expression analysis.
RNA isolation, cDNA synthesis and qPCR. […] Data were analyzed by the ddCt method by normalizing the expression of each gene to GAPDH and HPRT for mouse and GAPDH for human and then to the control group. All probes are listed below. • Mouse: EphB3 Mm00802553_m1, Ccl2 Mm00441242_m1, Csf2 Mm01290062_m1, Nos2 Mm00440502_m1, Tnf Mm00443258 m1, Il1b Mm00434228_m1, 116 Mm00446190_m1, GAPDH Mm99999915_g1. • Human: CCL2 Hs00234140_m1, CSF2 Hs00929873 ml, NOS2 Hs01075529_m1, TNF • Hs00174128_m1, IL6 Hs00985639_m1, IL1b Hs01555410_m1, GAPDH Hs02758991_g1.

splenic CD11b+ monocytes = experiment: Monocyte migration assay with astrocyte-conditioned medium; type: cell-based, mouse; conditions: ACM from astrocytes pre-treated with compound
Experimental: Generation of astrocyte-conditioned medium (ACM). […] After 24 h, cells were extensively washed with 1×PBS, and incubated with fresh astrocyte complete medium for 48 h. Supernatants were spun down and kept at −80° C. until tested in migration and neurotoxicity assays.
Monocyte Migration Assay. Monocytes were purified from spleens from C57BL/6J mice using CD11b Microbeads (#130-049-601, Miltenyi) following the manufacturer's instructions. 100,000 monocytes were seeded in the upper chamber of a 24-well cell culture transwell, with a 5 μm pore size (#3421, Thermo Fisher Scientific), containing 300 μL of astrocyte-conditioned medium (as detailed earlier) in the bottom chamber. After 3 h incubation at 37° C. in 5% CO2, cells were collected from the lower chamber after shaking and accutase solution incubation (#A6964, Sigma-Aldrich) and quantified by FACS.

NOD EAE = experiment: Chronic progressive EAE in NOD mice (MOG35-55); type: in vivo, mouse
Experimental: EAE. […] EAE was assessed as follows: 0, no signs of disease; 1, loss of tone in the tail; 2, hind limb paresis; 3, hind limb paralysis; 4, tetraplegia; 5, moribund.
To further validate the potential of EphB3 kinase inhibition for the therapeutic modulation of CNS inflammation and neurodegeneration, a study was performed using non-obese diabetic (NOD) mouse model of chronic progressive EAE induced by immunization with MOG35-55, which recapitulated aspects of secondary progressive MS, including the progressive and irreversible accumulation of neurologic disability.

## O=C(Nc1ccccc1Cl)c1cnc2ccc(C3CCNCC3)cn12 [A38]
[1]; IP 3 mg/kg in 100% saline, male Sprague-Dawley rats, mono-oxalate salt
  brain Cmax: 331 ng/mL
[1]; inferred from the brain to plasma ratio
  Pgp substrate: not a Pgp substrate
[1]; rat, brain/plasma, IP 3 mg/kg, male Sprague-Dawley rats, mono-oxalate salt, read-out: brain to plasma ratio
  Kp: 1.5
[1]; rat, plasma, IP 3 mg/kg in 100% saline, male Sprague-Dawley rats, mono-oxalate salt
  Cmax: 221 ng/mL
[1]; rat, plasma, IP 3 mg/kg in 100% saline, male Sprague-Dawley rats, mono-oxalate salt, read-out: plasma half-life T1/2 (converted)
  half-life: 2.25 h
[2]
  116 expression in astrocytes (qPCR): reduced 116 expression in astrocytes in a dose-dependent manner
  production of CCL2 (ELISA): decreased
  production of IL-6 (ELISA): decreased
  production of TNFα (ELISA): decreased
Splenic CD11b+ monocytes
  ACM chemoattractant activity: reduced ACM neurotoxic and chemoattractant activity
NOD EAE; administration during the progressive phase
  NOD EAE clinical scores: ameliorated NOD EAE, as indicated by the reduced clinical scores
NOD EAE; progressive phase of NOD EAE
  astrocyte and microglial expression of transcriptional modules associated with CNS inflammation and neurodegeneration: suppressed
  peripheral T-cell response: no changes in the peripheral T-cell response were detected
  recruitment of pro-inflammatory monocytes to the CNS: decreased recruitment
